Results published in patent publication US20030207891A1, “Combination therapy for modulating the human sexual response” (Zonagen, Inc., priority 1997, published 2003).
Structures can show the parent of a compound that is named as a salt.

Legend:
[1] = test system: corpus cavernosum; details: cited from earlier work; for erection after injection directly into the corpus cavernosum: hypodermic needle; for duration of erection after injection: intracavernosal, appropriate dose
[2] = test system: male erectile dysfunction; details: 25 mg and 50 mg; cited from earlier work
[3] = test system: impotentia erectionis; details: buccal, 100 I.U. three times a day for 14 days; cited from earlier work
[4] = test system: spontaneous erections in men; experiment: Effect of phentolamine and a phosphodiesterase inhibitor on spontaneous erections in men (Example 3); assay type: in vivo, human; details: alone, no sexual stimulation
Text: Example 3 describes a study on the effect of phentolamine and a phosphodiesterase inhibitor on spontaneous erections in men.
Papaverine, a known non-specific phosphodiesterase inhibitor, in combination with phentolamine mesylate was compounded in a rapidly dissolving formulation as set out in Table 5 except that papaverine at the doses indicated below was substituted for Sildenafil.

[5] = test system: impotent men; details: ingestion; cited from earlier work

Structure (SMILES)	erection after injection directly into the corpus cavernosum [1]	also measured
CCN(CC)CCOC(=O)C(Cc1cccc2ccccc12)CC1CCCO1 (mixture of isomers) [naftidrofuryl]	caused erection	–
CCCc1nn(C)c2c(=O)[nH]c(-c3cc(S(=O)(=O)N4CCN(C)CC4)ccc3OCC)nc12 [Sildenafil, 5-[2-ethoxy-5-(4-methylpiperazine-1-ylsulfonyl)phenyl]-1-methyl-3-proplyl-6,7-dihydro-1-H-pyrazolo[4,3-d]pyrimidin-7-one]	–	effectiveness at various doses [2]: effective
CN(C)CCCN1c2ccccc2CCc2ccccc21 [imipramine]	caused erection	–
CC[C@H](C)[C@@H]1NC(=O)[C@H](Cc2ccc(O)cc2)NC(=O)[C@@H](N)CSSC[C@@H](C(=O)N2CCC[C@H]2C(=O)N[C@@H](CC(C)C)C(=O)NCC(N)=O)NC(=O)[C@H](CC(N)=O)NC(=O)[C@H](CCC(N)=O)NC1=O [oxytocin]	–	improvement of impotentia erectionis, patients treated [3]: 12 of the 16
COc1ccc(Cc2nccc3cc(OC)c(OC)cc23)cc1OC [papaverine]	caused erection	duration of erection after injection [1]: unrelenting erection lasting for hours
CC(COc1ccccc1)N(CCCl)Cc1ccccc1 (centres unmarked) [phenoxybenzamine]	caused erection	duration of erection after injection [1]: unrelenting erection lasting for hours
Cc1ccc(N(CC2=NCCN2)c2cccc(O)c2)cc1 [phentolamine mesylate]	–	spontaneous erections [4]: did not exhibit spontaneous erections
Cc1ccc(N(CC2=NCCN2)c2cccc(O)c2)cc1 [phentolamine]	caused erection	–
CC(=O)Oc1cc(C(C)C)c(OCCN(C)C)cc1C [thymoxamine]	caused erection	–
COc1ccc(CCN(C)CCCC(C#N)(c2ccc(OC)c(OC)c2)C(C)C)cc1OC (centres unmarked) [verapamil]	caused erection	–
COC(=O)[C@@H]1[C@H]2C[C@H]3c4[nH]c5ccccc5c4CCN3C[C@@H]2CC[C@@H]1O [yohimbine]	–	subjective improvement in erectile ability, impotent men treated [5]: 38%; treated patients reporting complete satisfaction [5]: 5%
